Like-named read-outs stand apart in the source and are kept apart here.
Legend:
[1] = physical-chemical properties of LNP encapsulating mCherry mRNA; type: physicochemical; conditions: for Hydrodynamic diameter: LNP: ionizable lipid/DSPC/cholesterol/DMG-PEG2000 50:10:38.5:1.5, mCherry mRNA, pH 7.4 Tris, 25° C.
Excerpt: The mRNA was encapsulated in LNP using a self-assembly process in which an aqueous solution of mRNA at pH=3.5 is rapidly mixed with a solution of lipids dissolved in ethanol, then followed by stepwise phosphate and Tris buffer dilution and tangential flow filtration (TFF) purification. LNP composition in this study was: ionizable cationic lipid/distearoylphosphatidylcholine/cholesterol/DMG-PEG2000 (50:10:38.5:1.5 mol/mol) and were encapsulated at an N/P ratio (the ratio of positively-chargeable lipid amine (N=nitrogen) groups to negatively-charged nucleic acid phosphate (P) groups) at 6. LNPs were frozen at −80° C. […] The diameter of the nanoparticles was measured by dynamic light scattering using a Zetasizer Nano ZS (Malvern Instruments Ltd., Malvern, UK) instrument. Size measurement was carried out in pH 7.4 Tris buffer at 25° C. in relevant disposable capillary cells. A non-invasive back scatter system (NIBS) with a scattering angle of 173° was used for size measurements.

[2] = apparent pKa of ionizable lipid in lipid nanoparticle, TNS assay; type: physicochemical; conditions: for ΔpKa: difference of calculated and measured pKa; for pKa: TNS assay
Procedure: c Log D and c-pKa were calculated as noted above. The measured pKa of a lipid was determined as formulated in a lipid nanoparticle using the TNS assay as described in the following Example.
The apparent pKa of ionizable lipid in the lipid nanoparticle was determined using 6-(p-toluidino)-2-naphthalenesulfonic acid sodium salt (TNS salt, Toronto Research Chemicals, Toronto, ON, Canada). Lipid nanoparticles were diluted in 1×Dulbecco's PBS to a concentration of 1 mM total lipids. TNS salt was prepared as a 1 mg/mL stock solution in DMSO and then further diluted using distilled water to a working solution of 60 μg/mL ([…]). Diluted lipid nanoparticle samples were further diluted to 90 μM total lipids in 165 μL of buffered solution containing 10 mM HEPES, 10 mM MES, 10 mM ammonium acetate, 130 mM NaCl, and final TNS concentration of 1.33 μg/mL (4 μM) with the pH ranging from 3.5 to 12.2. Following pipette mixing and incubation at room temperature in the dark for 15 min, fluorescence intensity was measured at room temperature in a BioTek Synergy H1 plate reader using excitation and emission wavelengths of 321 and 445 nm, respectively. The fluorescence signal was blank subtracted and plotted as a function of the pH, then analyzed using a nonlinear (Boltzmann) regression analysis with the apparent pKa determined as the pH giving rise to half maximal fluorescence intensity as calculated by the Henderson-Hasselbalch equation.

[3] = test system: mouse splenic T cells; assay: targeted transfection of T cells in vivo with CD5-targeted tLNP; conditions: C57Bl/6 mice, 10 μg via tail vein, spleen at 24 hours
Procedure: To assess the performance of tLNP described in Example 35 they were used to transfect mouse T cells by injecting the tLNP into live mice and evaluated for their ability to generate murine T cells that express the mCherry reporter gene in vivo. All tLNP test articles were thawed at room temperature for 30 minutes and then diluted 1:2 with sterile water for injection to achieve a final dose concentration of 100 μg/mL. 100 μL (10 μg) of each test article was then injected via the tail vein into 8-week-old female C57Bl/6 mice. All treated mice were then sacrificed at 24 hours post-treatment and their spleens collected. Each spleen was then dissociated to single cell suspension and stained with antibodies to identify T cells, B cells, monocytes and non-hematopoietic cells. Stained samples were then analyzed by flow cytometry for expression of mCherry in immune cell subsets, and non-hematopoietic cells. Data analysis was performed using FlowJo (Version 10.8.1) and GraphPad Prism (9.4.1.).

[4] = test system: HEK293F cells; assay: transfection of HEK293F cells with mCherry mRNA LNP; type: cell-based; conditions: highest dose tested (2 μg RNA per well), 24 hours
Procedure: The ability of the LNP formed in the preceding Example to transfect HEK293F cells, a human embryonic kidney cell-derived cell line, with the mCherry mRNA was assessed. Viral Production Cells (Gibco Catalog number: A35347), a derivative of the HEK 293F cell line adapted to a chemically-defined, serum-free and protein-free medium (LV-MAX™ Production Medium; Gibco Catalog number: A3583401) were grown in suspension, sedimented, resuspended at about 1×10^6 cells/mL, and 200 μL distributed to the wells of a 96-well U-bottom plate. Frozen LNP were thawed and diluted to 100 μg mRNA/mL with sterile water for injection. An appropriate volume of LNP was added to provide 0, 0.3, 0.6, or 2 μg RNA per well in duplicate and mixed by re-pipetting. The cells were then incubated for 1 hour at 37° C. in a CO2 incubator, washed three times with phosphate buffered saline, resuspended in 400 μL of medium in a deep-well 96-well plate, and incubated at 37° C. in a CO2 incubator on an orbital shaker at 900 RPM.
Twenty-four hours after addition of the LNP to the cells they were stained with Aqua Live/Dead (Thermo: catalog L34965) to assess cell viability. Transfection rate and expression level in the transfected cells was assessed by flow cytometry based on mCherry fluorescence.

[5] = ionizable lipid in tLNP, read-out: Measured pKa
[6] = measured, lipid formulated in a lipid nanoparticle, read-out: pKa

Row | Encapapsulation Efficiency ([1]; LNP 50:10:38.5:1.5, mCherry mRNA, N/P 6) | PDI (polydispersity index) ([1]; LNP 50:10:38.5:1.5, mCherry mRNA, DLS) | SMILES | Hydrodynamic diameter ([1]; N/P 6, DLS) | ΔpKa [2] | pKa [2, 5] | pKa [2, 6] | level of mCherry expression (MFI) in vivo [3] | transfection rate of splenic T cells in vivo [3] | transfection rate [4]
1 | 99% | 0.13 | CCCCCCCCCC(=O)OCC(COC(=O)CCCCCCCCC)CC(=O)OCCN(CCOC(=O)CC(COC(=O)CCCCCCCCC)COC(=O)CCCCCCCCC)C(=O)NCCCN(C)C [Compound A-2] | 73 nm | 1.62 | 7.92 | 7.92 |  |  | 
2 |  |  | CCCCCCCCC(=O)OCC(COC(=O)CCCCCCCC)CC(=O)OCCN(CCOC(=O)CC(COC(=O)CCCCCCCC)COC(=O)CCCCCCCC)C(=O)OCCN(C)C [Compound A-11] | 82 nm | 1.81 | 6.65 | 6 to 7 | distinctly greater than that achieved with the other tLNP | around 7% | ~50%

Reference: patent publication US20230320995A1, “IONIZABLE CATIONIC LIPIDS AND LIPID NANOPARTICLES” (CAPSTAN THERAPEUTICS, INC., priority 2022, published 2023)
